Test results: patent publication US4656258A, “Macrocin derivatives” (Eli Lilly and Company, priority 1985, dated 1987)
Values after ≈ are worked out from the molar mass of the structure shown.

Assays:
[1] = system: Eschericia coli TEM; experiment: agar-dilution MIC; assay type: cell-based
Experimental: (§1) The MIC's in Table I were determined by standard agar-dilution assays. The MIC's in Table II were obtained using a conventional broth-dilution microtiter test.

[2] = system: Haemophilus influenzae 76; experiment: agar-dilution MIC; assay type: cell-based; conditions: Haemophilus influenzae 76, ampicillin-resistant strain
Experimental: as §1

[3] = system: Haemophilus influenzae C.L.; experiment: agar-dilution MIC; assay type: cell-based; conditions: ampicillin-sensitive strain
Experimental: as §1

[4] = system: Klebsiella pneumoniae X26; experiment: agar-dilution MIC; assay type: cell-based
Experimental: as §1

[5] = system: Staphylococcus aureus S13E; experiment: agar-dilution MIC; assay type: cell-based
Experimental: as §1

[6] = system: Staphylococcus aureus V41; experiment: agar-dilution MIC; assay type: cell-based; conditions: Staphylococcus aureus V41, penicillin-resistant strain
Experimental: as §1

[7] = system: Staphylococcus aureus X1.1; experiment: agar-dilution MIC; assay type: cell-based
Experimental: as §1

[8] = system: Staphylococcus aureus X400; experiment: agar-dilution MIC; assay type: cell-based; conditions: Staphylococcus aureus X400, methicillin-resistant strain
Experimental: as §1

[9] = system: Staphylococcus epidermidis EPI1; experiment: agar-dilution MIC; assay type: cell-based
Experimental: as §1

[10] = system: Staphylococcus epidermidis EPI2; experiment: agar-dilution MIC; assay type: cell-based
Experimental: as §1

[11] = system: Streptococcus pneumoniae Group D 9960; experiment: agar-dilution MIC; assay type: cell-based; conditions: GROUPD9960
Experimental: as §1

[12] = system: Streptococcus pneumoniae Group D X66; experiment: agar-dilution MIC; assay type: cell-based
Experimental: as §1

[13] = system: Streptococcus pneumoniae Park I; experiment: agar-dilution MIC; assay type: cell-based
Experimental: as §1

[14] = system: Streptococcus pyogenes C203; experiment: agar-dilution MIC; assay type: cell-based
Experimental: as §1

[15] = system: Mycoplasma hyopneumonia S-5972; experiment: broth-dilution microtiter MIC; assay type: cell-based; conditions: S5972
Experimental: as §1

[16] = system: Pasteurella multocida 17E; experiment: broth-dilution microtiter MIC; assay type: cell-based; conditions: bovine isolate
Experimental: as §1

[17] = system: Pasteurella multocida 60A; experiment: broth-dilution microtiter MIC; assay type: cell-based; conditions: avian isolate
Experimental: as §1

[18] = system: Staphylococcus aureus; experiment: broth-dilution microtiter MIC; assay type: cell-based
Experimental: as §1

[19] = system: Streptococcus sp. 80; experiment: broth-dilution microtiter MIC; assay type: cell-based
Experimental: as §1

[20] = system: Mycoplasma gallisepticum; experiment: antimycoplasmal activity in experimentally infected chicks; assay type: in vivo; conditions: gavage, 0.5 g/gal × 5, 21 days after infection; for Number with Antibodies / Number Tested: antibodies to M. gallisepticum; for Number with Antibodies / Number Tested / Number with Air-Sac Lesions / Number Treated: infected control 10/10, uninfected control 0/10; for Mortality: infected control 2/7
Experimental: In these tests infections were induced in chicks by injecting 0.2 ml of a broth culture of M. gallisepticum into the abdominal air sac of one- to three-day-old chicks. The compounds were administered by gavage at a dose equivalent to 0.5 g/gal two times on the day of infection, two times on the day following infection and one time on the third day. Twenty-one days after infection the chicks were weighed, a blood sample was taken, and the chicks were sacrificed. The presence or absence of air-sac lesions was recorded.

[21] = macrocin vs tylosin, lactenocin vs desmycosin; cited from earlier work

Row | Structure (SMILES) | MIC [1] [µg/mL] | MIC [2] [µg/mL] | MIC [3] [µg/mL] | MIC [4] [µg/mL] | MIC [5] [µg/mL] | MIC [6] [µg/mL] | MIC [7] [µg/mL] | MIC [8] [µg/mL] | MIC [9] [µg/mL] | MIC [10] [µg/mL] | MIC [11] [µg/mL] | MIC [12] [µg/mL] | MIC [13] [µg/mL] | MIC [14] [µg/mL] | MIC [15] [µg/mL] | MIC [16] [µg/mL] | MIC [17] [µg/mL] | MIC [18] [µg/mL] | MIC [19] [µg/mL] | Number with Antibodies / Number Tested [20] | also measured
1 | CCCC(=O)OC1C(C)OC(OC2C(C)OC(OC3C(CC=O)CC(C)C(=O)C=CC(C)=CC(COC4OC(C)C(O)C(O)C4OC)C(CC)OC(=O)CC(OC(C)=O)C3C)C(O)C2N(C)C)CC1(C)O (stereo not shown) [3-Acetyl-4"-(n-Butyryl)-macrocin, 3-O-Acetyl-4"-O-(n-Butyryl)macrocin] | > 128 | 32 (≈ 31.6 µM) | 32 (≈ 31.6 µM) | 64 (≈ 63.1 µM) | 2 (≈ 1.97 µM) | 1 (≈ 0.986 µM) | 1 (≈ 0.986 µM) | 2 (≈ 1.97 µM) | 1 (≈ 0.986 µM) | 2 (≈ 1.97 µM) | 2 (≈ 1.97 µM) | 2 (≈ 1.97 µM) | 0.25 (≈ 0.246 µM) | 0.5 (≈ 0.493 µM) | 0.048 (≈ 0.0473 µM) | 50 (≈ 49.3 µM) | 50 (≈ 49.3 µM) | 3.12 (≈ 3.08 µM) | 0.39 (≈ 0.385 µM) | 7/9 | Mortality [20]: 1/7; Number with Air-Sac Lesions / Number Treated [20]: 7/10
2 | CCC1OC(=O)CC(OC(C)=O)C(C)C(OC2OC(C)C(OC3CC(C)(O)C(OC(=O)CC(C)C)C(C)O3)C(N(C)C)C2O)C(CC=O)CC(C)C(=O)C=CC(C)=CC1COC1OC(C)C(O)C(O)C1OC (stereo not shown) [3-Acetyl-4"-Isovaleryl-macrocin, 3-O-acetyl-4"-O-isovalerylmacrocin] | 128 (≈ 124 µM) | 16 (≈ 15.6 µM) | 32 (≈ 31.1 µM) | 64 (≈ 62.2 µM) | 1 (≈ 0.973 µM) | 1 (≈ 0.973 µM) | 0.5 (≈ 0.486 µM) | 2 (≈ 1.95 µM) | 0.5 (≈ 0.486 µM) | 2 (≈ 1.95 µM) | 2 (≈ 1.95 µM) | 2 (≈ 1.95 µM) | 0.5 (≈ 0.486 µM) | 0.25 (≈ 0.243 µM) | 0.048 (≈ 0.0467 µM) | 50 (≈ 48.6 µM) | > 50 | 1.56 (≈ 1.52 µM) | 0.39 (≈ 0.379 µM) | 10/10 | Mortality [20]: 0/10; Number with Air-Sac Lesions / Number Treated [20]: 1/10
3 | CCC1OC(=O)CC(OC(C)=O)C(C)C(OC2OC(C)C(O)C(N(C)C)C2O)C(CC=O)CC(C)C(=O)C=CC(C)=CC1COC1OC(C)C(O)C(O)C1OC (stereo not shown) [3-Acetyl-lactenocin, 3-O-Acetyllactenocin] | 64 (≈ 80 µM) | 8 (≈ 10 µM) | 16 (≈ 20 µM) | 32 (≈ 40 µM) | 2 (≈ 2.5 µM) | 2 (≈ 2.5 µM) | 1 (≈ 1.25 µM) | 4 (≈ 5 µM) | 1 (≈ 1.25 µM) | 4 (≈ 5 µM) | 8 (≈ 10 µM) | 8 (≈ 10 µM) | 0.5 (≈ 0.625 µM) | 0.25 (≈ 0.313 µM) |  | 12.5 (≈ 15.6 µM) | 25 (≈ 31.3 µM) | 3.12 (≈ 3.9 µM) | 1.56 (≈ 1.95 µM) |  | 
4 | CCC1OC(=O)CC(OC(C)=O)C(C)C(OC2OC(C)C(OC3CC(C)(O)C(O)C(C)O3)C(N(C)C)C2O)C(CC=O)CC(C)C(=O)C=CC(C)=CC1COC1OC(C)C(O)C(O)C1OC (stereo not shown) [3-Acetyl-macrocin, 3-O-Acetylmacrocin] | 64 (≈ 67.8 µM) | 16 (≈ 16.9 µM) | 32 (≈ 33.9 µM) | 64 (≈ 67.8 µM) | 1 (≈ 1.06 µM) | 1 (≈ 1.06 µM) | 0.5 (≈ 0.53 µM) | 2 (≈ 2.12 µM) | 0.5 (≈ 0.53 µM) | 2 (≈ 2.12 µM) | 2 (≈ 2.12 µM) | 2 (≈ 2.12 µM) | 0.5 (≈ 0.53 µM) | 0.25 (≈ 0.265 µM) |  | 50 (≈ 53 µM) | > 50 | 1.56 (≈ 1.65 µM) | 1.56 (≈ 1.65 µM) |  | 
5 | CCC1OC(=O)CC(O)C(C)C(OC2OC(C)C(O)C(N(C)C)C2O)C(CC=O)CC(C)C(=O)C=CC(C)=CC1COC1OC(C)C(O)C(O)C1OC (stereo not shown) [lactenocin] |  |  |  |  |  |  |  |  |  |  |  |  |  |  |  |  |  |  |  |  | antibiotic activity relative to tylosin / desmycosin [21]: less than that of tylosin and desmycosin, respectively
6 | CCC1OC(=O)CC(O)C(C)C(OC2OC(C)C(OC3CC(C)(O)C(O)C(C)O3)C(N(C)C)C2O)C(CC=O)CC(C)C(=O)C=CC(C)=CC1COC1OC(C)C(O)C(O)C1OC (stereo not shown) [macrocin] |  |  |  |  |  |  |  |  |  |  |  |  |  |  |  |  |  |  |  |  | antibiotic activity relative to tylosin / desmycosin [21]: less than that of tylosin
